Test results: patent US20120232070A1, “Use of Indole Derivatives as Nurr-1 Activators for the Application Thereof as a Medicament for the Treatment of Parkinson's Disease” (Laboratoires Fournier SA, priority 2009, published 2012)

Legend:
[1] = biological target: hNurr1_RXRγFL (NURR1/RXRγ heterodimer) (Homo sapiens, UniProt P43354+P48443); assay: Transactivation assay in Cos-7 cells, NURR-1-Gal4 / RXRγ, luciferase reporter; assay type: cell-based; settings: for Emax: COS-7, read-out: hNurr1_RXRγFL Eff (%), efficacy in % relative to the reference XCT0135908 at 2·10^−5 M (=100%); for EC50: Cos-7 cells, overnight incubation
How it was run: (§1)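 Efficiency is given as a percentage of the induction produced by 2·10^−5 M XCT0135908 (100%), measured from heterodimer baseline. Read-out was luciferase after overnight exposure to compounds (10^−4–3·10^−10 M final) in Cos-7 cells transfected with NURR-1-Gal4, RXRα or RXRγ, and a Gal4 luciferase reporter.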

[2] = biological target: hNurr1_RXRαFL (NURR1/RXRα heterodimer) (Homo sapiens, UniProt P19793+P43354); assay: Transactivation assay in Cos-7 cells, NURR-1-Gal4 / RXRα, luciferase reporter; assay type: cell-based; settings: for Emax: COS-7, read-out: hNurr1_RXRαFL Eff (%), efficacy in % relative to the reference XCT0135908 at 2·10^−5 M (=100%); for EC50: Cos-7 cells, overnight incubation
How it was run: as §1

[3] = tested on: mice treated with 1-methyl-4-phenyl-1,2,3,6-tetrahydropyridine (MPTP); assay: MPTP mouse model, dopamine in the striatum; assay type: in vivo, male C57BL6/J mice; settings: oral, twice a day for 11 days; MPTP 25 mg/kg i.p. once a day for 5 days; FIGS. 1 and 2
Description: The compounds of examples 32 and 49 were assayed on a model of mice treated with 1-methyl-4-phenyl-1,2,3,6-tetrahydropyridine (MPTP) in order to confirm their potential activities. MPTP is a neurotoxin which causes permanent symptoms of Parkinson's disease by destroying certain neurons in the substantia nigra of the brain. The following procedure was used.
Male C57BL6/J mice aged 10-12 weeks at the start of the studies were distributed in groups of 8 animals. The compounds were administered orally, twice a day for a total of 11 days. Administration began 3 days before the treatment with the MPTP toxin at 25 mg/kg. MPTP was administered once a day by intraperitoneal injection for 5 days. Administration of the assayed compounds was continued for 3 days after the treatment with MPTP. One group of mice received the carrier only (0.5% solution of methylcellulose). The animals were euthanized after the last force-feeding and the striatum was removed. Dopamine was extracted from the striatum and the amount of dopamine (DA) expressed in ng per g of striatum (mean±SEM) was measured by high-performance liquid chromatography (HPLC) with electrochemical detection.

[4] = Plasma and cerebral pharmacokinetic profile after oral administration; assay type: in vivo, male C57B16 mouse; settings: oral administration 10 mg/kg in the mouse; for Kp: male, C57B16, brain/plasma, read-out: Ratio AUCbrain/AUCplasma
Description: A first series of in vivo assays were conducted with some compounds according to the invention, for the purpose of determining their plasma and cerebral pharmacokinetic profile in the male C57B16 mouse and thus verify that the compounds were capable of crossing the blood-brain barrier. The following procedure was used.
Male C57B16 mice (25-30 g) obtained from the Janvier establishment, Le Genest-St-Isle, France were used for this study (12 mice per dose). The animals were fed with standard rodent feed (Purina Mills, St. Louis, Mo.), placed in cages and subjected to light/darkness cycles of 12 h/12 h, the temperature of the room being maintained at 22±2° C. and the humidity at 55±10%. The mice were not fasting before administration. Water was supplied ad libitum throughout the study. The assayed compound was administered orally at 10 mg/kg. For oral administration at 10 mg/kg, the animals were force-fed with 10 mL/kg of a suspension of the assayed compound, prepared in methylcellulose 400 cp 1%. The animals were euthanized by anaesthesia at intervals of 15 min, 30 min, 1 h, 3 h, 6 h and 8 h after force-feeding. At each interval, blood was collected and the brain was removed from each euthanized animal. 1 mL of blood collected in 1.5 mL tubes containing 20 μL of evaporated anticoagulant (solution of sodium heparinate at 1000 IU/mL) was centrifuged at 4500 g for 3 min, obtaining about 400 μL of plasma. The plasma was distributed in 2 aliquots of 200 μL which were stored at −20° C. until extraction by protein precipitation and then analysis by liquid chromatography coupled with tandem mass spectrometry (LC-MS/MS) for quantification of the assayed compound. The brains were immersed in liquid nitrogen directly after removal, then stored at −20° C. for analysis. The brains were then ground in the presence of aqueous/organic solvent mixture to obtain a homogenate. These homogenates were then centrifuged and the assayed compound was extracted from the supernatant by liquid-liquid extraction, then quantified by LC-MS/MS.
The pharmacokinetic parameters were determined according to a non-compartmental approach using Excel. The area under curve (AUC0-t) was determined by the linear trapezoidal method. This method allows estimation of the integral of the concentrations over an interval of time (AUC0-t) and is based on the sum of the areas of the trapeziums delimited by the concentrations measured at the time of sampling (example AUC0-8 h=AUC0-0.25 h+AUC0.25 h-0.5 h+AUC0.5 h-t+AUCt-8 h). The penetration of the compounds through the blood-brain barrier is assessed from the ratio of the AUC measured in the brain to that measured in plasma. As an example, with the compounds of examples 32 and 49, the following results were obtained: […]

Sequence of hNurr1_RXRγFL (NURR1/RXRγ heterodimer) (P43354 328-598): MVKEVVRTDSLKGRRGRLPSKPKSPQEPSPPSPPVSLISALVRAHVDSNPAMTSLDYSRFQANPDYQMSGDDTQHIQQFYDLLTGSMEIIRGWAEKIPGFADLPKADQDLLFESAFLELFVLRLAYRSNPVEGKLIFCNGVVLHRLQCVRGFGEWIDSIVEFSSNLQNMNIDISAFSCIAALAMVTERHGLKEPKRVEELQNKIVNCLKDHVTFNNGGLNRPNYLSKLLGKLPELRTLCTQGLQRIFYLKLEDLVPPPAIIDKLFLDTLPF
Sequence of hNurr1_RXRγFL (NURR1/RXRγ heterodimer) (P48443 whole entry, the tested form may be a part): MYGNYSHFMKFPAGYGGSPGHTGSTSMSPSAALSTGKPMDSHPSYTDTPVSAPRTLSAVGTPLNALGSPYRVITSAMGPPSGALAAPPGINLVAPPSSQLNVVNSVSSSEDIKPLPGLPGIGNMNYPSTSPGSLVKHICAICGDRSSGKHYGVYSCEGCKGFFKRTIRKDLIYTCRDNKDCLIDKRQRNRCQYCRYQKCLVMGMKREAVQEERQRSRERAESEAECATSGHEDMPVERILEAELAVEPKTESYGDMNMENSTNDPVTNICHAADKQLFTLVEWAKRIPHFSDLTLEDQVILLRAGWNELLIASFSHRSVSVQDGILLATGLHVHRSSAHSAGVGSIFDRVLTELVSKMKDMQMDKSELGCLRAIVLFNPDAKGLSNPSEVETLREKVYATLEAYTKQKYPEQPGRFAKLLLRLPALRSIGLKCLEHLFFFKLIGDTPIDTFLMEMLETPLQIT
Sequence of hNurr1_RXRαFL (NURR1/RXRα heterodimer) (P19793 whole entry, the tested form may be a part): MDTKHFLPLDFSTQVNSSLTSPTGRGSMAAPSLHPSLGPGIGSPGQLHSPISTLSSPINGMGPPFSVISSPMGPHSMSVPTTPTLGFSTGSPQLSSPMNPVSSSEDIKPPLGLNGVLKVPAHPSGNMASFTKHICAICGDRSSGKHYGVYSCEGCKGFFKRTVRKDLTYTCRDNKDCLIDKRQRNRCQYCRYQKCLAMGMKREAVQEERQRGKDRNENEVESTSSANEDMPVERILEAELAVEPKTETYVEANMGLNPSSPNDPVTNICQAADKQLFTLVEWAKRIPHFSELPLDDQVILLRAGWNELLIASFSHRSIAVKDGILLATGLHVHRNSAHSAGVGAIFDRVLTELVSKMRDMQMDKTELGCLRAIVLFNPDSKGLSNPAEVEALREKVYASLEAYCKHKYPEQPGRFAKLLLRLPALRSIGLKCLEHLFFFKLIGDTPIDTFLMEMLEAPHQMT
Sequence of hNurr1_RXRαFL (NURR1/RXRα heterodimer) (P43354 328-598): as the sequence (P43354 328-598) above

Structure (SMILES)	melting point	Emax [1]	EC50 [1]	Emax [2]	EC50 [2]	effect on the MPTP-induced decrease of dopamine in the striatum [3]	Kp [4]	AUCbrain [4]	hNurr1_RXRαFL Eff (%) ([2]; efficacy in % relative to the reference XCT0135908 at 2·10^−5 M (=100%))
CC(C)(C)c1cccc(S(=O)(=O)n2c(Cc3ccc(C(=O)O)cc3F)cc3cc(C(F)(F)F)ccc32)c1 [Example 67, 4-[[1-[[3-(1,1-dimethylethyl)phenyl]sulfonyl]-5-trifluoromethyl-1H-indol-2-yl]methyl]-3-fluorobenzoic acid]	177 °C	75%	91 nM	73%	28 nM				
CC(C)c1ccc(S(=O)(=O)n2c(Cc3ccc(C(=O)O)c(F)c3)cc3cc(C(F)(F)F)ccc32)cc1 [Example 2, 2-fluoro-4-[[1-[[4-(1-methylethyl)phenyl]sulfonyl]-5-(trifluoromethyl)-1H-indol-2-yl]methyl]benzoic acid]	197 °C	43%	724 nM	63%	657 nM				
CC(C)c1cccc(S(=O)(=O)n2c(Cc3ccc(C(=O)O)cc3)cc3cc(C(F)(F)F)ccc32)c1 [Example 32, 4-[[1-[[3-(1-methylethyl)phenyl]sulfonyl]-5-(trifluoromethyl)-1H-indol-2-yl]methyl]benzoic acid]		62%	219 nM		103 nM	dose-dependent decrease in the action of MPTP	0.8	3763 ng·h/mL	68%
CC(C)(C)c1cccc(S(=O)(=O)n2c(Cc3ccc(C(=O)O)c(O)c3)cc3cc(C(F)(F)F)ccc32)c1 [Example 56]	129 °C	51%	417 nM	82%	1160 nM				
CC(C)(C)c1cccc(S(=O)(=O)n2c(Cc3ccc(C(=O)O)cc3)cc3cc(C(F)(F)F)ccc32)c1 [Example 49, 4-[[1-[[3-(1,1-dimethylethyl)phenyl]sulfonyl]-5-(trifluoromethyl)-1H-indol-2-yl]methyl]benzoic acid]		71%	110 nM	73%	48 nM	dose-dependent decrease in the action of MPTP	0.8	10491 ng·h/mL	
Cc1c(Cc2ccc(C(=O)O)s2)n(S(=O)(=O)c2cccc(C(C)(C)C)c2)c2ccc(C(F)(F)F)cc12 [Example 85, 5-[[1-[[3-(1,1-dimethylethyl)-phenyl]sulfonyl]-3-methyl-5-trifluoromethyl-1H-indol-2-yl]methyl]-thiophene-2-carboxylic acid]	171 °C	73%	115 nM	87%	53 nM				
CC(C)(C)c1ccc(S(=O)(=O)n2c(Cc3ccc(C(=O)O)cc3)cc3cc(Cl)ccc32)cc1 [Example 155, 4-[[1-[4-tert-butyl-phenylsulfonyl]-5-(chloro)-1H-indol-2-yl]methyl]benzoic acid]		59%	468 nM	69%	262 nM				
